Here are results for 18 compounds from patent US20230374038A1, “MODULATORS OF CYSTIC FIBROSIS TRANSMEMBRANE CONDUCTANCE REGULATOR” (VERTEX PHARMACEUTICALS INCORPORATED, priority 2020, published 2023).

pEC50: −log10 of the molar value. Several values for one entry are separate records, joined by “and”; a condition that tells them apart may be missing. Equal values may be shown once. Read-outs that look alike come from different tables or passages of the source. Where only a bound is given, the exact number is not on record here.

The conditions of data set [1]: amide bond.
The next data set addresses CFTR (Homo sapiens, UniProt P13569). Nature of the data set: Membrane Potential Dye, Enteroid Assay B. Particulars: for pEC50: read-out: Ent. B EC50. In kind it is cell-based. In short, it runs like this:
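Membrane-potential fluorescence read over 15 min after chloride-free stimulation (forskolin 10 μM, IBMX 100 μM, Compound III 300 nM), with CaCCinh-A01 and Chicago Sky Blue present. Enteroids had 18-24 h compound exposure at 37 °C; activity given as % of the triple-combination corrector/potentiator reference response.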

By pEC50 is commonly meant the negative decadic logarithm of the EC50, by convention in mol/L.

Chain of CFTR (P13569 with tags, fused parts or gaps DEL508-508): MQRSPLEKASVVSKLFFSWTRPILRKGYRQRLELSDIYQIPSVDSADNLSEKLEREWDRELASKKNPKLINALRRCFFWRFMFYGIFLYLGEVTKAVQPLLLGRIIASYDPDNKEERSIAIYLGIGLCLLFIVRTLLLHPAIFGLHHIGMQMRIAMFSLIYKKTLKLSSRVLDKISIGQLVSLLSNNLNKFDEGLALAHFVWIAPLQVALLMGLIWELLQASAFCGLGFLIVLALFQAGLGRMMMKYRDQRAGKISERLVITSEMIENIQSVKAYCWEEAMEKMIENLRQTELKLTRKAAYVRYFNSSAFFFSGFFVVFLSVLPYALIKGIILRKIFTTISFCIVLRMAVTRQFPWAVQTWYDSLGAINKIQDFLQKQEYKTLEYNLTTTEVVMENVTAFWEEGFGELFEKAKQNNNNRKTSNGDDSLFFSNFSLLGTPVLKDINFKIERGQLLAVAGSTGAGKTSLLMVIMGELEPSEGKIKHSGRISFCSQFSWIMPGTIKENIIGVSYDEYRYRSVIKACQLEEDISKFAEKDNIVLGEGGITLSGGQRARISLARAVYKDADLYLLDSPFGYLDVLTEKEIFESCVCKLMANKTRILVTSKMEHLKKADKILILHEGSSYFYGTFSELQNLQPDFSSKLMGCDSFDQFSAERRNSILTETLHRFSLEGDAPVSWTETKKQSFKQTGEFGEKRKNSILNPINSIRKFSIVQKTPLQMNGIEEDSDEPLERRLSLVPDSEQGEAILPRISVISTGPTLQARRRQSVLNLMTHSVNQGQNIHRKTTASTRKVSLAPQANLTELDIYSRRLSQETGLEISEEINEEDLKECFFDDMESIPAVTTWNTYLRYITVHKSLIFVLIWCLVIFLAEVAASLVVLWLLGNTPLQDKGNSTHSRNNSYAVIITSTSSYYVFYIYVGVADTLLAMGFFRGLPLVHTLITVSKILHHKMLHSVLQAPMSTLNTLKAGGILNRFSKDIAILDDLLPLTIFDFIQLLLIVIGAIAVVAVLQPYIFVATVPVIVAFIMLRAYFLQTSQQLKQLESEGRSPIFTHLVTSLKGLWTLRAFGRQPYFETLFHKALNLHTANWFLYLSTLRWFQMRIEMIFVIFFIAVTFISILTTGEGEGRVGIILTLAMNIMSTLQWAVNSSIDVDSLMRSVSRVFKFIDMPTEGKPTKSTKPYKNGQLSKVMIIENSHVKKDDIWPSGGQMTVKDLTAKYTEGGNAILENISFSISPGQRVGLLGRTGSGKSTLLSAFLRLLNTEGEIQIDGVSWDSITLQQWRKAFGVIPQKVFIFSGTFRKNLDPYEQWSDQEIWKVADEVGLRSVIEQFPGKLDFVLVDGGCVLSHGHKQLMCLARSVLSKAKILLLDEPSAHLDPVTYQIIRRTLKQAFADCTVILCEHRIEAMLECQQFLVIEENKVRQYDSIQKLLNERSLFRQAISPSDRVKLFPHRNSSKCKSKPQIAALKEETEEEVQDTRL

Take `Cc1cccc(CC(C)C)c1-c1nc2nc(c1C(F)(F)F)OC[C@@H](CC(C)(C)C)N(Cc1ncc(N3CCOCC3)cn1)C(=O)c1cccc(c1)S(=O)(=O)N2`: the ring closure, yield after HPLC in data set [1] (from Cc1cccc(CC(C)C)c1-c1nc(NS(=O)(=O)c2cccc(C(=O)O)c2)nc(OC[C@@H](CC(C)(C)C)NCc2ncc(N3CCOCC3)cn2)c1C(F)(F)F, 13-membered ring, CDMT/NMM, DMF, 92.0 mM, 4.0 h) turned out to be 37%.
In the case of `Cc1cccc(C)c1-c1nc2nc(c1C)OCCCNC(=O)c1cccc(c1)S(=O)(=O)N2` [Compound 36, 6-(2,6-Dimethylphenyl)-7-methyl-9-oxa-2λ^6-thia-3,5,13,20-tetraazatricyclo[13.3.1.14,8]icosa-1(19),4,6,8(20),15,17-hexaene-2,2,14-trione], the ring closure, yield after HPLC in data set [1] (from Cc1cccc(C)c1-c1nc(NS(=O)(=O)c2cccc(C(=O)O)c2)nc(OCCCN)c1C, 14-membered ring, HATU/DIEA, DMF, 49.0 mM, 25.0 °C, 1.0 h) came out at 46%. On CFTR, the “Ent. B Max Activity” value was “+ (+ is <30%)” and the pEC50 was 4.52 to 5.52.
In data set [1] (from CCc1c(OC[C@H](N)CC(C)(C)C)nc(NS(=O)(=O)c2cccc(C(=O)O)c2)nc1-c1c(C)cccc1C, 13-membered ring, COMU/DIEA, DMF, 20.3 mM, 15.0 h), `CCc1c2nc(nc1-c1c(C)cccc1C)NS(=O)(=O)c1cccc(c1)C(=O)N[C@H](CC(C)(C)C)CO2` [Compound 161, (11R)-6-(2,6-Dimethylphenyl)-11-(2,2-dimethylpropyl)-7-ethyl-9-oxa-2λ^6-thia-3,5,12,19-tetraazatricyclo[12.3.1.14,8]nonadeca-1(18),4(19),5,7,14,16-hexaene-2,2,13-trione] displayed a ring closure, yield after HPLC of 41%. At CFTR, the “Ent. B Max Activity” value is reported as “+++ (+++ is >60%)” and the pEC50 was above 6.00.
Regarding `Cc1cccc(C)c1-c1nc2nc(c1C)OC[C@@H](CC(C)(C)C(F)(F)F)N(C1CC3(CCN(C(=O)OC(C)(C)C)CC3)C1)C(=O)c1cccc(c1)S(=O)(=O)N2` [Compound 156, tert-Butyl 2-[(11R)-6-(2,6-dimethylphenyl)-7-methyl-2,2,13-trioxo-11-(3,3,3-trifluoro-2,2-dimethylpropyl)-9-oxa-2λ^6-thia-3,5,12,19-tetraazatricyclo[12.3.1.14,8]nonadeca-1(17),4(19),5,7,14(18),15-hexaen-12-yl]-7-azaspiro[3.5]nonane-7-carboxylate], the ring closure, yield after HPLC in data set [1] (from Cc1cccc(C)c1-c1nc(NS(=O)(=O)c2cccc(C(=O)O)c2)nc(OC[C@@H](CC(C)(C)C(F)(F)F)NC2CC3(CCN(C(=O)OC(C)(C)C)CC3)C2)c1C, 13-membered ring, HATU/DIEA, DMF, 23.2 mM, 29.0 h) came out at 22%. For the same compound, at CFTR, the “Ent. B Max Activity” value is given as “+++ (+++ is >60%)” and the pEC50 was above 6.00.
In turn, `COc1c2nc(nc1-c1c(C)cccc1C)NS(=O)(=O)c1cccc(c1)C(=O)N(C1CC3(CCN(C(=O)OC(C)(C)C)CC3)C1)[C@H](CC(C)C)CO2` came in with a ring closure, yield after HPLC in data set [1] (13-membered ring, HATU/DIEA, DMF) of 22%.
In turn, “(5P,11R)-11-(2,2-dimethylpropyl)-12-({5-[(2,2-dimethylpropyl)(methyl)amino]pyrimidin-2-yl}methyl)-7-methyl-6-[2-methyl-6-(2-methylpropyl)phenyl]-9-oxa-2λ^6-thia-3,5,12,19-tetraazatricyclo[12.3.1.14,8]nonadeca-1(17),4(19),5,7,14(18),15-hexaene-2,2,13-trione” gave a ring closure, yield after HPLC in data set [1] (13-membered ring, CDMT/NMM, DMF, 19.0 mM, 2 steps) of 11%.
On to “(5M,11R)-11-(2,2-dimethylpropyl)-7-methyl-6-[2-methyl-6-(3-methylbutyl)phenyl]-12-{[5-(propan-2-yloxy)pyrimidin-2-yl]methyl}-9-oxa-2λ^6-thia-3,5,12,19-tetraazatricyclo[12.3.1.14,8] nonadeca-1(17),4(19),5,7,14(18),15-hexaene-2,2,13-trione”, for which the ring closure, yield after HPLC in data set [1] (13-membered ring, CDMT/NMM, DMF, 47.4 mM) stood at 40%.
Turning to `Cc1cccc(CC(C)(C)C)c1-c1nc2nc(c1C)OC[C@@H](CC(C)(C)C)N(Cc1ncc(N3CCC(C)(C)C3)cn1)C(=O)c1cccc(c1)S(=O)(=O)N2`, the ring closure, yield after HPLC in data set [1] (from Cc1cccc(CC(C)(C)C)c1-c1nc(NS(=O)(=O)c2cccc(C(=O)O)c2)nc(OC[C@@H](CC(C)(C)C)NCc2ncc(N3CCC(C)(C)C3)cn2)c1C, 13-membered ring, CDMT/NMM, DMF, 11.0 mM, 16.0 h, 2 steps) came out at 11%; in data set [1] (from Cc1cccc(CC(C)(C)C)c1-c1nc(NS(=O)(=O)c2cccc(C(=O)O)c2)nc(OC[C@@H](CC(C)(C)C)NCc2ncc(N3CCC(C)(C)C3)cn2)c1C, 13-membered ring, CDMT/NMM, DMF, 12.0 mM, 16.0 h, 2 steps) it was 7%.
Regarding `Cc1cccc(C)c1-c1nc2nc(c1C)OC[C@@H](CC(C)C)N(C1CC3(CC3)C1)C(=O)c1cccc(n1)S(=O)(=O)N2` [Compound 118, (11R)-6-(2,6-Dimethylphenyl)-7-methyl-11-(2-methylpropyl)-12-{spiro[2.3]hexan-5-yl}-9-oxa-2λ^6-thia-3,5,12,18,19-pentaazatricyclo[12.3.1.14,8]nonadeca-1(17),4(19),5,7,14(18),15-hexaene-2,2,13-trione], in data set [1] (from Cc1cccc(C)c1-c1nc(NS(=O)(=O)c2cccc(C(=O)O)n2)nc(OC[C@@H](CC(C)C)NC2CC3(CC3)C2)c1C, 13-membered ring, HATU/DIEA, DMF, 12.2 mM, 17.0 h), the ring closure, yield after HPLC was 42%. Also, on CFTR, the “Ent. B Max Activity” value is listed as “+++ (+++ is >60%)” and the pEC50 was above 6.00.
`Cc1cccc(C)c1-c1nc2nc(c1C)OC[C@@H](CC(C)(C)C)N(C1CC3(C1)CC(C(C)(C)O)C3)C(=O)c1cccc(c1)S(=O)(=O)N2` (stereo partly drawn) showed a ring closure, yield after HPLC in data set [1] (from Cc1cccc(C)c1-c1nc(NS(=O)(=O)c2cccc(C(=O)O)c2)nc(OC[C@@H](CC(C)(C)C)NC2CC3(C2)CC(C(C)(C)O)C3)c1C, 13-membered ring, HATU/DIEA, DMF, 28.7 mM, 16.0 h) of 6%.
Consider `Cc1cccc(C)c1-c1nc2nc(c1C)OC[C@@H](CC1(C(F)(F)F)CC1)N(C1CC3(CC3)C1)C(=O)c1cccc(c1)S(=O)(=O)N2` [Compound 50, (11R)-6-(2,6-Dimethylphenyl)-7-methyl-2,2-dioxo-12-spiro[2.3]hexan-5-yl-11-[[1-(trifluoromethyl)cyclopropyl]methyl]-9-oxa-2λ^6-thia-3,5,12,19-tetrazatricyclo[12.3.1.14,8]nonadeca-1(18),4(19),5,7,14,16-hexaen-13-one], for which the ring closure, yield after HPLC in data set [1] (from Cc1cccc(C)c1-c1nc(NS(=O)(=O)c2cccc(C(=O)O)c2)nc(OC[C@@H](CC2(C(F)(F)F)CC2)NC2CC3(CC3)C2)c1C, 13-membered ring, HATU/DIEA, DMF, 14.4 mM, 25.0 °C, 23.0 h) came to 44%. On CFTR, the “Ent. B Max Activity” value was “+++ (+++ is >60%)” and the pEC50 is above 6.00.
For `Cc1cccc(C)c1-c1nc2nc(c1C)O[C@H](c1ccc(C(C)(C)C)cc1)[C@@H](C)NC(=O)c1cccc(c1)S(=O)(=O)N2` [Compound 172, (10R,11R)-10-(4-tert-Butylphenyl)-6-(2,6-dimethylphenyl)-7,11-dimethyl-2,2-dioxo-9-oxa-2λ^6-thia-3,5,12,19-tetrazatricyclo[12.3.1.14,8]nonadeca-1(18),4(19),5,7,14,16-hexaen-13-one], the ring closure, yield after HPLC in data set [1] (13-membered ring, NaOtBu then HATU, THF/DMF, 77.0 mM, 2 steps) stood at 8%. Further, at CFTR, the “Ent. B Max Activity” value was “+++ (+++ is >60%)” and the pEC50 is above 6.00.
`CCc1c2nc(nc1-c1c(C)cccc1C)NS(=O)(=O)c1cccc(c1)C(=O)N(C1CC3(CC3)C1)[C@H](CC(C)C)CO2` [Compound 160, (11R)-6-(2,6-Dimethylphenyl)-7-ethyl-11-isobutyl-2,2-dioxo-12-spiro[2.3]hexan-5-yl-9-oxa-2λ^6-thia-3,5,12,19-tetrazatricyclo[12.3.1.14,8]nonadeca-1(17),4(19),5,7,14(18),15-hexaen-13-one] yielded a ring closure, yield after HPLC in data set [1] (from CCc1c(OC[C@@H](CC(C)C)NC2CC3(CC3)C2)nc(NS(=O)(=O)c2cccc(C(=O)O)c2)nc1-c1c(C)cccc1C, 13-membered ring, HATU/TEA, DMF, 31.1 mM, 3.0 h) of 60%. On CFTR, the “Ent. B Max Activity” value was “+++ (+++ is >60%)” and the negative-log EC50 (pEC50) was above 6.00.
Turning to `Cc1cccc(C)c1-c1nc2nc(c1C)OC[C@@H](CC(C)(C)C)N(C1CC3(CC(NC(=O)OC(C)(C)C)C3)C1)C(=O)c1cccc(c1)S(=O)(=O)N2` (stereo partly drawn), in data set [1] (from Cc1cccc(C)c1-c1nc(NS(=O)(=O)c2cccc(C(=O)O)c2)nc(OC[C@@H](CC(C)(C)C)NC2CC3(CC(NC(=O)OC(C)(C)C)C3)C2)c1C, 13-membered ring, HATU/DIEA, DMF, 14.3 mM, 72.0 h), the ring closure, yield after HPLC was 62%.
With `Cc1cccc(C(C)C)c1-c1nc2nc(c1C)OC[C@@H](CC(C)(C)C)N(Cc1ncc(N3CCOCC3)cn1)C(=O)c1cccc(c1)S(=O)(=O)N2`, the ring closure, yield after HPLC in data set [1] (from Cc1cccc(C(C)C)c1-c1nc(NS(=O)(=O)c2cccc(C(=O)O)c2)nc(OC[C@@H](CC(C)(C)C)NCc2ncc(N3CCOCC3)cn2)c1C, 13-membered ring, CDMT/NMM, DMF, 55.0 mM, 19.0 h) is 18% and 11%.
For `Cc1cccc(CC2CCOCC2)c1-c1nc2nc(c1C)OC[C@@H](CC(C)(C)C)N(Cc1ncc(N3CCOCC3)cn1)C(=O)c1cccc(c1)S(=O)(=O)N2`, in data set [1] (from Cc1cccc(CC2CCOCC2)c1-c1nc(NS(=O)(=O)c2cccc(C(=O)O)c2)nc(OC[C@@H](CC(C)(C)C)NCc2ncc(N3CCOCC3)cn2)c1C, 13-membered ring, CDMT/NMM, DMF, 41.0 mM, 19.0 h), the ring closure, yield after HPLC is 25%.
In data set [1] (from Cc1cccc(C)c1-c1nc(NS(=O)(=O)c2cccc(C(=O)O)c2)nc(OC[C@@H](CC(C)C)NC2CC(OC(C)C)C2)c1C, 13-membered ring, HATU/DIEA, DMF, 25.0 °C, 2 steps), `Cc1cccc(C)c1-c1nc2nc(c1C)OC[C@@H](CC(C)C)N(C1CC(OC(C)C)C1)C(=O)c1cccc(c1)S(=O)(=O)N2` (single isomer, unassigned; diastereomer 1) had a ring closure, yield after HPLC of 9%.
Take `Cc1ccc2cc1Oc1cc(-c3c(C)cccc3C)nc(n1)NS(=O)(=O)c1cccc(c1)NC2=O`: the ring closure, yield after HPLC in data set [1] (from Cc1ccc(C(=O)O)cc1Oc1cc(-c2c(C)cccc2C)nc(NS(=O)(=O)c2cccc(N)c2)n1, 14-membered ring, HATU/DIEA, DMF, 78.0 mM, 25.0 °C, 0.083 h, 3 steps) amounted to 26%.
